Data taken from patent publication US6127519A, “Calcitonin derivatives” (Tsumura & Co., priority 1990, dated 2000).
Numbered stars: 1 amine (or outer) side, 2 acyl side, 3 side chain; on linkers, the order of the positions; unused ones are H or OH. Bridge positions count the residues as written; N and C are the ends. Ends that are not written are not given here. Peptide text beside a SMILES is read from it. Suc = O=C(CCC(=O)[*:2])[*:1]

System: calcium concentration in the serum
Experiment: Test 1: reduction of calcium level in serum after tail vein administration to rats
Type: in vivo, rats of the Wistar strain
Settings: 1 ml/kg tail vein, female Wistar rats
Method in brief: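 Female Wistar rats, six weeks old, were assigned in groups of 4 and given the test peptides through the tail vein at 1 ml/kg. The peptides were dissolved in 1% aqueous sodium acetate (pH 4,0) containing 0.1% BSA. Blood (0.3 ml) was drawn from the neck vein immediately before dosing and at set times afterward. Serum was separated by centrifuging at 3500 rpm for 20 minutes. Calcium was measured on a TBA-380 analyzer with a Wako o-cpc kit, and the percentage reduction in serum calcium was calculated.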

[1] = concentration 83 ng/ml, 0 hour (just before administration)
[2] = concentration 83 ng/ml, 2 hours
[3] = concentration 83 ng/ml, 4 hours
[4] = concentration 83 ng/ml, 6 hours
[5] = concentration 830 ng/ml, 0 hour (just before administration)
[6] = concentration 830 ng/ml, 1 hour
[7] = concentration 830 ng/ml, 2 hours
[8] = concentration 830 ng/ml, 4 hours
[9] = concentration 830 ng/ml, 6 hours

Compound | Serum calcium level as percent of pre-dose baseline [1] [%] | Serum calcium level as percent of pre-dose baseline (concentration 83 ng/ml, 1 hour) [%] | Serum calcium level as percent of pre-dose baseline [2] [%] | Serum calcium level as percent of pre-dose baseline [3] [%] | Serum calcium level as percent of pre-dose baseline [4] [%] | Serum calcium level as percent of pre-dose baseline [5] [%] | Serum calcium level as percent of pre-dose baseline [6] [%] | Serum calcium level as percent of pre-dose baseline [7] [%] | Serum calcium level as percent of pre-dose baseline [8] [%] | Serum calcium level as percent of pre-dose baseline [9] [%]
CC[C@H](C)[C@H](NC(=O)[C@H](C)NC(=O)[C@@H](NC(=O)[C@H](CCC(N)=O)NC(=O)[C@@H]1CCCN1C(=O)[C@H](Cc1ccc(O)cc1)NC(=O)[C@@H](NC(=O)[C@H](Cc1c[nH]cn1)NC(=O)[C@H](Cc1ccccc1)NC(=O)[C@H](CCCCN)NC(=O)[C@H](CC(N)=O)NC(=O)[C@H](CC(C)C)NC(=O)[C@H](CC(=O)O)NC(=O)[C@H](CCC(N)=O)NC(=O)[C@@H](NC(=O)[C@H](CC(C)C)NC(=O)[C@H](CCCCN)NC(=O)CNC(=O)[C@H](CC(C)C)NC(=O)[C@H](CC(C)C)NC(=O)[C@@H]1CCCCNC(=O)CCC(=O)N[C@@H](CC(N)=O)C(=O)N[C@@H](CC(C)C)C(=O)N[C@@H](CO)C(=O)N[C@@H]([C@@H](C)O)C(=O)N1)[C@@H](C)O)[C@@H](C)O)[C@@H](C)O)C(=O)NCC(=O)N[C@H](C(=O)NCC(=O)N[C@@H](C)C(=O)N1CCC[C@H]1C(N)=O)C(C)C [Peptide No. 33] (NLSTKLLGKLTQDLNKFHTYPQTAIGVGAP-NH2; linker N-5 via Suc) | 100.0 | 78.2 | 70.0 | 92.4 | 86.0 | 100.0 | 80.8 | 71.8 | 63.5 | 55.1
Peptide No. 20: novel linear calcitonin-derivative peptide, Ala at 1 and 7, Leu8, SEQ ID NO:20 (AGNLTSALLGKLSQELHKLQTYPQTAIGVGAP; ends and bridges not checked) | 100.0 | 86.6 | 88.4 | 83.9 | 87.5 | 100.0 | 80.6 | 87.8 | 82.9 | 84.5
CC[C@H](C)[C@H](NC(=O)[C@H](C)NC(=O)[C@@H](NC(=O)[C@H](CCC(N)=O)NC(=O)[C@@H]1CCCN1C(=O)[C@H](Cc1ccc(O)cc1)NC(=O)[C@@H](NC(=O)[C@H](CCC(N)=O)NC(=O)[C@H](CCCCN)NC(=O)[C@H](Cc1c[nH]cn1)NC(=O)[C@H](CC(C)C)NC(=O)[C@H](CCC(=O)O)NC(=O)[C@H](CCC(N)=O)NC(=O)[C@H](CO)NC(=O)[C@H](CC(C)C)NC(=O)[C@H](CCCCN)NC(=O)CNC(=O)[C@H](CC(C)C)NC(=O)[C@H](CCSC)NC(=O)[C@@H]1CSSC[C@H](N)C(=O)NCC(=O)N[C@@H](CC(N)=O)C(=O)N[C@@H](CC(C)C)C(=O)N[C@@H](CO)C(=O)N[C@@H]([C@@H](C)O)C(=O)N1)[C@@H](C)O)[C@@H](C)O)C(=O)NCC(=O)N[C@@H](CO)C(=O)NCC(=O)N[C@H](C(=O)N1CCC[C@H]1C(N)=O)[C@@H](C)O [Peptide No. 6] (H-CGNLSTCMLGKLSQELHKQTYPQTAIGSGTP-NH2; disulfide 1-7) |  |  |  |  |  | 100.0 | 73.1 | 68.1 | 74.6 | 92.1
Peptide No. 21: novel calcitonin-derivative peptide, aminosuberic acid (carba) ring, Met8, SEQ ID NO:21 (XGNLSTAMLGKLSQELHKLQTYPQTAIGVGAP; aminosuberic acid carba ring) | 100.0 | 78.4 | 71.7 | 62.6 | 67.1 | 100.0 | 78.4 | 71.7 | 62.6 | 67.1
